Results from patent US4278797A, “Intermediates to phenylmorphans and method of preparation thereof” (priority 1980, dated 1981).
Like-named read-outs stand apart in the source and are kept apart here.

How the values were obtained:
[1] = compared with morphine or with 5-(3-hydroxyphenyl)-2-methylmorphan; literature; cited from earlier work
[2] = literature; cited from earlier work
Rat tail jerk = assay: rat-tail jerk assay (light beam or heat source applied to the tail); assay type: in vivo; conditions: dose causing a two second delay in tail removal compared to control animals receiving no drug; for ED (2 s delay): Rattus norvegicus, sc, subcutaneous, read-out: Rat tail jerk subcutaneous injection ED2 seconds
Protocol: The phenylmorphan derivatives provided by this invention are useful as analgesics in the treatment of pain in animals suffering from pain and in need of treatment. […] One such test is the rat-tail jerk assay. In this test, a light beam or heat source is applied to the tail of a rat. The pain threshold of the animal is measured by the latency of the rat to remove its tail from the pain source. Column 2 in the following table presents the effective subcutaneous dose in mg/kg of a number of the compounds of this invention which causes a two second delay (ED2 sec) in tail removal compared to the control animals receiving no drug.

Mouse writhing = assay: mouse writhing test (intraperitoneal acetic acid); assay type: in vivo, mice; conditions: dose reducing writhing by fifty percent; for ED50: Mus musculus
Source text: In another test designed to show analgesic activity, mice are given an intraperitaneal injection of acetic acid which causes the animals to writh. An effective analgesic is one that reduces the writhings. Column 3 of the following table presents the effective sucutaneous and oral doses in mg/kg of a compound of this invention required to reduce the writing in test animals by fifty percent (ED50).

[3] = sc, subcutaneous, read-out: Mouse writhing s.c. ED50
[4] = oral, read-out: Mouse writhing oral ED50

SMILES | ED (2 s delay) (Rat tail jerk) | ED50 (Mouse writhing; [3]) | ED50 (Mouse writhing; [4]) | further results
CN1CCC2(c3cccc(O)c3)CCCC1C2 (racemic) [racemic 5-(3-hydroxyphenyl)-2-methylmorphan, 5-(3-hydroxyphenyl)-2-methylmorphan] |  |  |  | analgesic potency [1]: nearly equivalent to that of morphine
CN1CCC2(c3cccc(O)c3)CCCC1C2 (single isomer, unassigned; (-)) [(-)-isomer of 5-(3-hydroxyphenyl)-2-methylmorphan, (-)-5-(3-hydroxyphenyl)-2-methylmorphan] |  |  |  | physical dependence capacity [2]: no physical dependence capacity; analgesic potency [1]: morphine-like potency
CC1CC2CC(c3cccc(O)c3)(C1)CC(C)N2C (stereo not drawn) [2,3,7-Trimethyl-5-(3-hydroxyphenyl)morphan] | 0.5 mg/kg | 0.66 mg/kg | 14 mg/kg | 
COc1cccc(C23CC(C)CC(C2)N(C)C(C)C3)c1 (stereo not drawn) [2,3,7-Trimethyl-5-(3-methoxyphenyl)morphan] | 20 mg/kg | 7.8 mg/kg | 22 mg/kg | 
CC1CC2(c3cccc(O)c3)CCCC(C2)N1C (stereo not drawn) [2,3-dimethyl-5-(3-hydroxyphenyl)morphan, 2,3-Dimethyl-5-(3-hydroxyphenyl)morphan] | 2 mg/kg | 2 mg/kg | 23 mg/kg | 
COc1cccc(C23CCCC(C2)N(C)C(C)C3)c1 (stereo not drawn) [2,3-dimethyl-5-(3-methoxyphenyl)morphan, 2,3-Dimethyl-5-(3-methoxyphenyl)morphan] |  |  |  | Rat tail jerk subcutaneous injection ED2 seconds (Rat tail jerk): 15.0 mg/kg; Mouse writhing oral ED50 (Mouse writhing; oral): 17.0 mg/kg; Mouse writhing s.c. ED50 (Mouse writhing; subcutaneous): 13.0 mg/kg
CC1CC2CC(c3cccc(O)c3)(CCN2C)C1 (stereo not drawn) [2,7-dimethyl-5-(3-hydroxyphenyl)morphan, 2,7-Dimethyl-5-(3-hydroxyphenyl)morphan] | 0.5 mg/kg | 0.72 mg/kg | 28.5 mg/kg | 
COc1cccc(C23CCN(C)C(CC(C)C2)C3)c1 (stereo not drawn) [2,7-dimethyl-5-(3-methoxyphenyl)morphan, 2,7-Dimethyl-5-(3-methoxyphenyl)morphan] | 10 mg/kg | 3.5 mg/kg | 28.5 mg/kg | 
CN1CCC2(c3cccc(O)c3)CCCC1C2 (stereo not drawn) [2-methyl-5-(3-hydroxyphenyl)-morphan, 2-Methyl-5-(3-hydroxyphenyl)morphan] | 1 mg/kg | 1.3 mg/kg | 29 mg/kg | 
COc1cccc(C23CCCC(C2)N(C)CC3)c1 (stereo not drawn) [2-methyl-5-(3-methoxyphenyl)-morphan, 2-Methyl-5-(3-methoxyphenyl)morphan] | 10 mg/kg | 9.6 mg/kg | 27.5 mg/kg | 
